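A five-concentration, 48-hour dose response in 96-well plates underlies each endpoint, interpolated linearly between surrounding concentrations. Abbreviation: GI50, concentration required for 50% inhibition of growth.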 The source made the active and inactive calls. Cut-off read from the data, not from the text of the source: active = GI50 up to about 1.1 µM and inactive = higher.
Experiments:
Test in all cases: inhibition of tumour cell growth, NCI panel, 48 h
HOP-92 = tested on: HOP-92
NCI-H23 = tested on: NCI-H23
SK-OV-3 = tested on: SK-OV-3
CCRF-CEM = tested on: CCRF-CEM
TK-10 = tested on: TK-10
ACHN = tested on: ACHN
OVCAR-3 = tested on: OVCAR-3
DU-145 = tested on: DU-145
SF-295 = tested on: SF-295
OVCAR-4 = tested on: OVCAR-4
U-251 = tested on: U-251
SR = tested on: SR
BT-549 = tested on: BT-549
MDA-N = tested on: MDA-N
HOP-62 = tested on: HOP-62
MCF7 = tested on: MCF7
UACC-257 = tested on: UACC-257
K562 = tested on: K562
HCC 2998 = tested on: HCC 2998

SMILES	GI50 (HOP-92)	GI50 (NCI-H23)	GI50 (SK-OV-3)	GI50 (CCRF-CEM)	GI50 (TK-10)	GI50 (ACHN)	GI50 (OVCAR-3)	GI50 (DU-145)	GI50 (SF-295)	GI50 (OVCAR-4)	GI50 (U-251)	GI50 (SR)	GI50 (BT-549)	GI50 (MDA-N)	GI50 (HOP-62)	GI50 (MCF7)	GI50 (UACC-257)	GI50 (K562)	GI50 (HCC 2998)
NC(=O)C1CCCNC1 (stereo unspecified)	> 100 µM (inactive)	> 100 µM (inactive)	> 100 µM (inactive)	> 100 µM (inactive)	> 100 µM (inactive)	> 100 µM (inactive)	> 100 µM (inactive)	> 100 µM (inactive)	> 100 µM (inactive)	> 100 µM (inactive)	> 100 µM (inactive)	> 100 µM (inactive)	> 100 µM (inactive)	> 100 µM (inactive)	> 100 µM (inactive)	> 100 µM (inactive)			
Cc1cc(C)nc(NC(=O)COc2ccc(Cl)cc2)c1	> 100 µM (inactive)	> 100 µM (inactive)	> 100 µM (inactive)		> 100 µM (inactive)	> 100 µM (inactive)	> 100 µM (inactive)	> 100 µM (inactive)	84.9 µM (inactive)	> 100 µM (inactive)	> 100 µM (inactive)	> 100 µM (inactive)	> 100 µM (inactive)	> 100 µM (inactive)	> 100 µM (inactive)	85.7 µM (inactive)	> 100 µM (inactive)	> 100 µM (inactive)	
COc1ccc(OC)c(/N=C/c2cc(OC)c(OC)c(OC)c2)c1		> 100 µM (inactive)	> 77.8 µM (inactive)	22.9 µM (inactive)	> 100 µM (inactive)	> 94.4 µM (inactive)		> 100 µM (inactive)	> 100 µM (inactive)	> 85.1 µM (inactive)	> 100 µM (inactive)	32.5 µM (inactive)	> 78.9 µM (inactive)	40.1 µM (inactive)	> 100 µM (inactive)	62.4 µM (inactive)	> 100 µM (inactive)	> 68.1 µM (inactive)	> 100 µM (inactive)
COC(=O)CC1C2(C)C3=C(C)C(c4ccoc4)CC3OC2C2OC(=O)C3(C)C=CC(=O)C1(C)C23 (stereo unspecified)	1.82 µM (inactive)	1.57 µM (inactive)	4.11 µM (inactive)	0.317 µM (active)	2.28 µM (inactive)	1.2 µM (inactive)	1.35 µM (inactive)	0.76 µM (active)	3.22 µM (inactive)	2.25 µM (inactive)	1.48 µM (inactive)		0.9 µM (active)	0.385 µM (active)	3.28 µM (inactive)	0.578 µM (active)	1.95 µM (inactive)	0.474 µM (active)	1.41 µM (inactive)
COc1cc(C(c2cccc3ccccc23)N2C(=O)CCC2C(=O)O)cc(OC)c1OC (stereo unspecified)	> 100 µM (inactive)	> 100 µM (inactive)	> 100 µM (inactive)	> 100 µM (inactive)		> 100 µM (inactive)	> 100 µM (inactive)	> 100 µM (inactive)	> 100 µM (inactive)	> 100 µM (inactive)	> 100 µM (inactive)	> 100 µM (inactive)	> 100 µM (inactive)	> 100 µM (inactive)	> 100 µM (inactive)	> 100 µM (inactive)	> 100 µM (inactive)	> 100 µM (inactive)	
Cc1nc(-c2ccccc2)c(C)n2c1nc1ccccc12	19 µM (inactive)	15.4 µM (inactive)	20.1 µM (inactive)	30.7 µM (inactive)	29.4 µM (inactive)		24.6 µM (inactive)	29.9 µM (inactive)	37.6 µM (inactive)	17.2 µM (inactive)	30.1 µM (inactive)	19.1 µM (inactive)	23 µM (inactive)	29.9 µM (inactive)	32.4 µM (inactive)	24 µM (inactive)	38.1 µM (inactive)	35.3 µM (inactive)	
C=C(CO)[C@H]1Oc2ccc(C(C)=O)cc2[C@@H]1O		> 100 µM (inactive)	> 100 µM (inactive)	> 100 µM (inactive)	> 100 µM (inactive)	> 100 µM (inactive)	> 100 µM (inactive)	> 100 µM (inactive)	> 100 µM (inactive)	> 100 µM (inactive)	> 100 µM (inactive)	> 100 µM (inactive)	33.2 µM (inactive)	22.2 µM (inactive)	> 100 µM (inactive)	> 100 µM (inactive)	> 100 µM (inactive)	67.9 µM (inactive)	> 100 µM (inactive)
COc1ccc2c(c1)N=C1CSC(c3cccc(Br)c3)N1C2 (stereo unspecified)	16.7 µM (inactive)	17.9 µM (inactive)	21.3 µM (inactive)		16 µM (inactive)	13.3 µM (inactive)			14.2 µM (inactive)	15.9 µM (inactive)	17.5 µM (inactive)	4.52 µM (inactive)	12.4 µM (inactive)	11.5 µM (inactive)	22.8 µM (inactive)	6.59 µM (inactive)	10.5 µM (inactive)	3.85 µM (inactive)	6.43 µM (inactive)

From ChEMBL document CHEMBL1201862, “PubChem BioAssay data set” (2004)
